Measured values taken from US20250382337A1 (UNIVERSITY OF MIAMI, priority 2022, published 2025).

Tested on: SCI pain
Conditions: in vivo

## NCC1(CC(=O)O)CCCCC1 [gabapentin]
  place preference in GFP (control AAV) SCI animals: induced place preference
